The subject of one series is Anas platyrhynchos. Particulars: oral, mortality.
The next series concerns Pimephales promelas. The settings on record: chronic/long-term; duration: 21 days; growth.
In another series the test system is Oryctolagus sp. Particulars: reproduction developmental; body weight.
The next series concerns Bibionidae. Particulars: chronic/long-term; duration: 28 days.
The test system of the next series is Oncorhynchus mykiss. The settings on record: acute; duration: 96 hours; mortality.
The subject of the next series is Colinus virginianus. The settings on record: acute; oral; diet; mortality.
For another series, the system named is Tagia sp. Particulars: acute; duration: 14 days; mortality.

These results are taken from EPA's ToxValDB 9.5 (doi:10.2903/j.efsa.2009.217r).

Values after ≈ are worked out from the molar mass of the structure shown.

As to `Oc1ccccc1-c1ccccc1` [2-Phenylphenol], the LD50 in the series with Anas platyrhynchos (acute, unspecified) is > 2250 mg/kg-day; in the series on Rattus norvegicus (acute, oral, mortality) it was 2730 mg/kg-day. For the same molecule, the LC50 in the series on Anas platyrhynchos (short-term, feed) is > 1900 mg/kg-day; in the series on Oncorhynchus mykiss, 4 µg/mL (≈ 23.5 µM); in the series with Colinus virginianus, > 2810 mg/kg-day; in the series with Tagia sp., 198 mg/kg. Moreover, the NOEC in the series on Pimephales promelas is 0.036 mg/L; in the series with Bibionidae, 1.85 mg/L. In addition, the NOAEL in the series on Oryctolagus sp. was determined as 100 mg/kg-day; with Rattus norvegicus (chronic, duration: 2 years, oral, Fischer 344, histopathology: neoplastic) it was 39 mg/kg-day; in the series with Rattus norvegicus (reproduction developmental), 500 mg/kg-day.

A word on the NOAEL: it is the highest dose or exposure tested at which no adverse effect was seen.
